From patent US4211772A, “Benzopyran glycoside acetals and ketals” (Laboratoires Sarget, priority 1977, dated 1980)
Read-outs that look alike come from different tables or passages of the source.

Experiments:
carragenin edema = assay: Anti-inflammatory activity: carragenin edema test; assay type: in vivo; settings: for % inhibition of carragenin edema: borate buffer pH 7, 24 h; for inhibition in vivo at 35 mg/kg / inhibition in vivo at 40 mg/kg / inhibition in vivo at 75 mg/kg / inhibition in vivo at 100 mg/kg / inhibition in vivo at 200 mg/kg: Rattus norvegicus, ip
Procedure, shortened: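 Male Wistar EOPS rats receive 0.1 ml of 5% carragenin suspension in physiological serum into the hind-paw metatarsal muscle, with test substance given i.p. in neutralized solution at the same time. Paw edema is measured by plethysmometry at several times after carragenin and reported as % inhibition against pH-matched physiological serum controls.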

capillary resistance = assay: Capillaroprotecting effects: capillary resistance; assay type: in vivo, male OFA EOPS rats
Procedure: (§1) Capillaroprotecting effects
The capillary resistance was determined by a variant of the method of Charlier et al, Arch. Inter. Physiol.

Aldose Reductase = target: T1, Aldose Reductase (Bos taurus, UniProt P16116); assay: Inhibition of aldose reductase in vitro (enzyme from beef eye lenses, glyceraldehyde substrate); assay type: biochemical; settings: in DMF solution, read-out: percentages of inhibition (aldose reductase)
T1 construct: The enzyme is extracted from beef eye lenses; from tissue; host or cells: beef eye lenses
Text: Inhibition of Aldose Reductase In Vitro
The reoxidation of NADPH coupled to the enzymatic reaction was followed spectrophotometrically at 340 nm.

Solubilities in water = assay type: physicochemical; settings: water; read-out: Solubilities in water
capillary permeability = assay: Capillaroprotecting effects: capillary permeability; assay type: in vivo, conventional male Wistar rats
Procedure: as §1
The capillary permeability was determined by the method of Charlier et al, Arch. Inter. Physiol.

SMILES: C[C@@H]1O[C@@H](OC[C@H]2O[C@@H](Oc3c(-c4ccc(O)c(O)c4)oc4cc(O)cc(O)c4c3=O)[C@H](O)[C@@H](O)[C@@H]2O)[C@@H]2OC3(CCCCC3)O[C@@H]2[C@H]1O [No. 6, 3-O-(2,3-O,O-cyclohexylidene-6-α-L-rhamnosyl-β-D-glucosyl)-quercitin]
- % inhibition of carragenin edema (carragenin edema; 35 mg/kg i.p.): 27%
- % inhibition of carragenin edema (carragenin edema; 75 mg/kg i.p.): 21%
- % inhibition of carragenin edema (carragenin edema; 100 mg/kg i.p.): 37%
- % inhibition of carragenin edema (carragenin edema; 200 mg/kg i.p.): 0%
- inhibition in vivo at 35 mg/kg (carragenin edema; 1 h, pH 7, read-out: % inhibition of carragenin edema, 35 mg/kg i.p., borate buffer pH 7, 1 h): 32%
- inhibition in vivo at 35 mg/kg (carragenin edema; 1 h, pH 7, read-out: % inhibition of carragenin edema, 35 mg/kg i.p., borate buffer pH 7, 1 h 1/2): 23%
- inhibition in vivo at 40 mg/kg (carragenin edema; 1 h, pH 7, read-out: % inhibition of carragenin edema, 40 mg/kg i.p., borate buffer pH 7, 1 h): 23%
- inhibition in vivo at 40 mg/kg (carragenin edema; 1 h, pH 7, read-out: % inhibition of carragenin edema, 40 mg/kg i.p., borate buffer pH 7, 1 h 1/2): 11%
- inhibition in vivo at 75 mg/kg (carragenin edema; 1 h, pH 7, read-out: % inhibition of carragenin edema, 75 mg/kg i.p., borate buffer pH 7, 1 h): 9%
- inhibition in vivo at 75 mg/kg (carragenin edema; 1 h, pH 7, read-out: % inhibition of carragenin edema, 75 mg/kg i.p., borate buffer pH 7, 1 h 1/2): 3%
- inhibition in vivo at 100 mg/kg (carragenin edema; 1 h, pH 7, read-out: % inhibition of carragenin edema, 100 mg/kg i.p., borate buffer pH 7, 1 h): 20%
- inhibition in vivo at 100 mg/kg (carragenin edema; 1 h, pH 7, read-out: % inhibition of carragenin edema, 100 mg/kg i.p., borate buffer pH 7, 1 h 1/2): 9%
- inhibition in vivo at 200 mg/kg (carragenin edema; 1 h, pH 7, read-out: % inhibition of carragenin edema, 200 mg/kg i.p., borate buffer pH 7, 1 h): 19%
- inhibition in vivo at 200 mg/kg (carragenin edema; 1 h, pH 7, read-out: % inhibition of carragenin edema, 200 mg/kg i.p., borate buffer pH 7, 1 h 1/2): 2%
- inhibition in vivo at 35 mg/kg (carragenin edema; 2 h, pH 7, read-out: % inhibition of carragenin edema, 35 mg/kg i.p., borate buffer pH 7, 2 h): 33%
- inhibition in vivo at 40 mg/kg (carragenin edema; 2 h, pH 7, read-out: % inhibition of carragenin edema, 40 mg/kg i.p., borate buffer pH 7, 2 h): 7%
- inhibition in vivo at 75 mg/kg (carragenin edema; 2 h, pH 7, read-out: % inhibition of carragenin edema, 75 mg/kg i.p., borate buffer pH 7, 2 h): 14%
- inhibition in vivo at 100 mg/kg (carragenin edema; 2 h, pH 7, read-out: % inhibition of carragenin edema, 100 mg/kg i.p., borate buffer pH 7, 2 h): 1%
- inhibition in vivo at 200 mg/kg (carragenin edema; 2 h, pH 7, read-out: % inhibition of carragenin edema, 200 mg/kg i.p., borate buffer pH 7, 2 h): 4%
- inhibition in vivo at 35 mg/kg (carragenin edema; 3 h, pH 7, read-out: % inhibition of carragenin edema, 35 mg/kg i.p., borate buffer pH 7, 3 h): 9%
- inhibition in vivo at 40 mg/kg (carragenin edema; 3 h, pH 7, read-out: % inhibition of carragenin edema, 40 mg/kg i.p., borate buffer pH 7, 3 h): 2%
- inhibition in vivo at 75 mg/kg (carragenin edema; 3 h, pH 7, read-out: % inhibition of carragenin edema, 75 mg/kg i.p., borate buffer pH 7, 3 h): 17%
- inhibition in vivo at 100 mg/kg (carragenin edema; 3 h, pH 7, read-out: % inhibition of carragenin edema, 100 mg/kg i.p., borate buffer pH 7, 3 h): 2%
- inhibition in vivo at 200 mg/kg (carragenin edema; 3 h, pH 7, read-out: % inhibition of carragenin edema, 200 mg/kg i.p., borate buffer pH 7, 3 h): 0%
- inhibition in vivo at 35 mg/kg (carragenin edema; 4 h, pH 7, read-out: % inhibition of carragenin edema, 35 mg/kg i.p., borate buffer pH 7, 4 h): 7%
- inhibition in vivo at 40 mg/kg (carragenin edema; 4 h, pH 7, read-out: % inhibition of carragenin edema, 40 mg/kg i.p., borate buffer pH 7, 4 h): 5%
- inhibition in vivo at 75 mg/kg (carragenin edema; 4 h, pH 7, read-out: % inhibition of carragenin edema, 75 mg/kg i.p., borate buffer pH 7, 4 h): 0%
- inhibition in vivo at 100 mg/kg (carragenin edema; 4 h, pH 7, read-out: % inhibition of carragenin edema, 100 mg/kg i.p., borate buffer pH 7, 4 h): 10%
- inhibition in vivo at 200 mg/kg (carragenin edema; 4 h, pH 7, read-out: % inhibition of carragenin edema, 200 mg/kg i.p., borate buffer pH 7, 4 h): 8%
- inhibition in vivo at 35 mg/kg (carragenin edema; 5 h, pH 7, read-out: % inhibition of carragenin edema, 35 mg/kg i.p., borate buffer pH 7, 5 h): 10%
- inhibition in vivo at 40 mg/kg (carragenin edema; 5 h, pH 7, read-out: % inhibition of carragenin edema, 40 mg/kg i.p., borate buffer pH 7, 5 h): 2%
- inhibition in vivo at 75 mg/kg (carragenin edema; 5 h, pH 7, read-out: % inhibition of carragenin edema, 75 mg/kg i.p., borate buffer pH 7, 5 h): 7%
- inhibition in vivo at 100 mg/kg (carragenin edema; 5 h, pH 7, read-out: % inhibition of carragenin edema, 100 mg/kg i.p., borate buffer pH 7, 5 h): 15%
- inhibition in vivo at 200 mg/kg (carragenin edema; 5 h, pH 7, read-out: % inhibition of carragenin edema, 200 mg/kg i.p., borate buffer pH 7, 5 h): 9%
- inhibition in vivo at 35 mg/kg (carragenin edema; 6 h, pH 7, read-out: % inhibition of carragenin edema, 35 mg/kg i.p., borate buffer pH 7, 6 h): 14%
- inhibition in vivo at 40 mg/kg (carragenin edema; 6 h, pH 7, read-out: % inhibition of carragenin edema, 40 mg/kg i.p., borate buffer pH 7, 6 h): 0%
- inhibition in vivo at 75 mg/kg (carragenin edema; 6 h, pH 7, read-out: % inhibition of carragenin edema, 75 mg/kg i.p., borate buffer pH 7, 6 h): 13%
- inhibition in vivo at 100 mg/kg (carragenin edema; 6 h, pH 7, read-out: % inhibition of carragenin edema, 100 mg/kg i.p., borate buffer pH 7, 6 h): 5%
- inhibition in vivo at 200 mg/kg (carragenin edema; 6 h, pH 7, read-out: % inhibition of carragenin edema, 200 mg/kg i.p., borate buffer pH 7, 6 h): 1%
- inhibition in vivo at 35 mg/kg (carragenin edema; read-out: % inhibition of carragenin edema, 35 mg/kg i.p., borate buffer pH 7, 1/2 h): 26%
- inhibition in vivo at 40 mg/kg (carragenin edema; read-out: % inhibition of carragenin edema, 40 mg/kg i.p., borate buffer pH 7, 1/2 h): 28%
- inhibition in vivo at 75 mg/kg (carragenin edema; read-out: % inhibition of carragenin edema, 75 mg/kg i.p., borate buffer pH 7, 1/2 h): 29%
- inhibition in vivo at 100 mg/kg (carragenin edema; read-out: % inhibition of carragenin edema, 100 mg/kg i.p., borate buffer pH 7, 1/2 h): 23%
- inhibition in vivo at 200 mg/kg (carragenin edema; read-out: % inhibition of carragenin edema, 200 mg/kg i.p., borate buffer pH 7, 1/2 h): 14%
- % of animals for which the effect is ≥ 25 u cm Hg/h (capillary resistance; 50 mg/kg i.p.): 30%
- capillary resistance, effect observed (capillary resistance; 50 mg/kg i.p.): 19.75 ± 10.2 u cm Hg/h
- % of animals for which the effect is ≥ 25 u cm Hg/h (capillary resistance; 100 mg/kg i.p.): 40%
- capillary resistance, effect observed (capillary resistance; 100 mg/kg i.p.): 25.5 ± 13.2 u cm Hg/h
- % of animals for which the effect is ≥ 25 u cm Hg/h (capillary resistance; 200 mg/kg i.p.): 90%
- capillary resistance, effect observed (capillary resistance; 200 mg/kg i.p.): 37.75 ± 12.9 u cm Hg/h
- inhibition at 100 µM (Aldose Reductase; 10^-4 mole/l): 93%
- inhibition at 10 µM (Aldose Reductase; 10^-5 mole/l): 66%
- inhibition at 1 µM (Aldose Reductase; 10^-6 mole/l): 10%
- solubility (Solubilities in water): < 100 µg/mL
- percentage reduction of capillary permeability (capillary permeability; 50 mg/kg i.p.): 21%
- percentage reduction of capillary permeability (capillary permeability; 100 mg/kg i.p.): 20%
- percentage reduction of capillary permeability (capillary permeability; 200 mg/kg i.p.): 23%
